Laboratory results published in patent publication US7964634B2, “Therapeutic compounds” (Allergan, Inc., priority 2008, dated 2011).

Test system: lashes and adjacent hairs of the eyelids
Assay: Observation of eyelash and hair growth in glaucoma patients treated in one eye
Type: in vivo
Source text: In the course of treating patients having glaucoma, treatment may only be appropriate in one eye. […] The lash appearance on the lids of the treated eyes would have appeared quite attractive if it represented a bilateral phenomenon. As a result of its asymmetric nature, the long lashes on one side could be construed as disturbing from a cosmetic standpoint. A systemic examination was preformed as a result of the asymmetric phenomenon. It soon became apparent that this altered appearance was not an isolated finding.
The changes in the lashes were apparent on gross inspection in several patients once attention was focused on the issue. In those with light colored hair and lashes, the differences were only seen easily with the aid of the high magnification and lighting capabilities of the slit lamp biomicroscope. In the course of glaucoma follow-up examination, attention is generally immediately focused on the eye itself. As a result of the high power magnification needed only one eye is seen at a time and the eye is seen at a high enough power that the lashes are not in focus. At these higher powers, any lash asymmetry between the two eyes is not likely to be noticed except by careful systematic comparison of the lashes and adjacent hairs of the eyelids of the two eyes. […]

In the case of CCNC(=O)CCC/C=C\C[C@@H]1[C@@H](/C=C/[C@@H](O)CCc2ccccc2)[C@H](O)C[C@@H]1O [bimatoprost], the “differences in lashes and adjacent hairs of the treated side” value (all patients taking the drug on a unilateral basis for longer than 6 months) is reported as “Definite differences could be identified to varying degrees” and the “lash appearance in treated eye versus non-treated eye” value (glaucoma patient treated in one eye only) is reported as “longer, thicker, and fuller in the treated eye than in the non-treated eye”.
